Data reported in PMC9112895, “Selective Inhibition of Plasmodium falciparum ATPase 6 by Artemisinins and Identification of New Classes of Inhibitors after Expression in Yeast” (Antimicrobial Agents and Chemotherapy, 2022).
Marks after values point to notes of the source that are not given here.

What was measured:
[1] = test system: Plasmodium falciparum; assay: In vitro parasite assay ([3H]hypoxanthine uptake); assay type: cell-based; settings: parasites in vitro, read-out: antiparasitic potency IC50
Method: Inhibitor IC50s were calculated in parasite assays following the protocol described by Desjardins et al. ([52]). Briefly, cultures were synchronized to ring stage by D-sorbitol lysis, using a 5% D-sorbitol solution. The parasites were diluted to a final parasitemia of 1%. Hypoxanthine-free medium was added to give a hematocrit level of 4%. A 2-fold dilution series of the inhibitors in hypoxanthine-free medium was prepared, and 100 μL of each inhibitor concentration was seeded in a 96-well plate, with 5 technical replicates of each included. Two no-inhibitor controls, i.e., hypoxanthine-free medium only, were included. Plates were incubated at 37°C in 5% CO2 for 24 h. After 24 h, [^3H]hypoxanthine was added to each well to a final concentration of 0.5 μCi/well, and the plates were incubated for a further 24 h. Plates were then freeze-thawed to lyse the cells, and the [^3H]hypoxanthine uptake was measured in a Beckman scintillation counter.

[2] = molecular target: T1, PfATP6 (Plasmodium falciparum, UniProt Q08853); assay: In vitro activity assay, PfATP6 (membrane-bound); assay type: biochemical; set-up: pUGpd containing the yeast-optimized coding region of PfATP6 from Plasmodium falciparum; expressed in transfected cells; settings: 1 μM free calcium
T1 sequence (Q08853 whole entry): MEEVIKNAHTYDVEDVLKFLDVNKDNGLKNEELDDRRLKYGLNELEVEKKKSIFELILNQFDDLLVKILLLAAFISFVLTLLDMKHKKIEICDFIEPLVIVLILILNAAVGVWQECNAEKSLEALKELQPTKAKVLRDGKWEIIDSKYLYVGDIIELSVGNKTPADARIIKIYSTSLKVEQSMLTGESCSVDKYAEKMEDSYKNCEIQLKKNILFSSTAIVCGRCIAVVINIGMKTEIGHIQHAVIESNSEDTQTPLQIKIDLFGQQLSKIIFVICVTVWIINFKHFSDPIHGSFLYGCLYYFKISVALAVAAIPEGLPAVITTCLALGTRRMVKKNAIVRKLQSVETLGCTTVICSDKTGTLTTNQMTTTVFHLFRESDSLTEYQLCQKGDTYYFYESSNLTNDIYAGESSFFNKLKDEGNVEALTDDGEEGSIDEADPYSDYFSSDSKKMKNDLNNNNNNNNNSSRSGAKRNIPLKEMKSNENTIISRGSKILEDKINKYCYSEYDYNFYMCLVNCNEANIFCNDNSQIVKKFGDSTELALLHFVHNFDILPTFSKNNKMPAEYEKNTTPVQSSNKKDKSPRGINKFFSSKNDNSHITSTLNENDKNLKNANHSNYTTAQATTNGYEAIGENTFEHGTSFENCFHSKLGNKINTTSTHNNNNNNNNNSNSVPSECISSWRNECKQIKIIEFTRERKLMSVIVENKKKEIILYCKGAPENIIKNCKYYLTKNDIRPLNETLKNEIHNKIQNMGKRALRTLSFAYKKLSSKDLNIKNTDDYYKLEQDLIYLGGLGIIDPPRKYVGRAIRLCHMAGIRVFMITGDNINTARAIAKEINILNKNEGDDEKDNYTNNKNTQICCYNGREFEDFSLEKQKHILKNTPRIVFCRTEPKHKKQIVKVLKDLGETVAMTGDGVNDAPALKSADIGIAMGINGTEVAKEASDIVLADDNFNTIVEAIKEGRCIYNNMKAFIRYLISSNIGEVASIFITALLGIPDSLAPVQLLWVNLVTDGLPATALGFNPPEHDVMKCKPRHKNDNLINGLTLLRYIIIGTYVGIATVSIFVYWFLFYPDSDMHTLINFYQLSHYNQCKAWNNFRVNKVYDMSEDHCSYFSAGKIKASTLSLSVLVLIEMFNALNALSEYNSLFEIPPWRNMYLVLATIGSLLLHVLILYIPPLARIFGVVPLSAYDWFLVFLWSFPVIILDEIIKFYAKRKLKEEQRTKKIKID
Method: Activity assays were performed as described by Longland et al. ([55]) and LeBel et al. ([56]), except that the reaction mixtures were incubated at 30°C instead of 37°C. […] Then, 5.8 mM ATP was added and incubated for an additional 15 min at 30°C. The reaction was stopped with 0.5 mL 6.5% trichloroacetic acid (TCA) on ice, and the mixture was centrifuged at 4°C for 10 min at 16,000 × g; 0.5 mL of the supernatant was added to 1.5 mL of copper acetate buffer (0.25% copper sulfate pentahydrate, 4.6% sodium acetate trihydrate, dissolved in 2 M acetic acid [pH 4.0]) and mixed by vortex-mixing before the addition of 0.25 mL of 5% ammonium molybdate, followed by 0.25 mL METOL buffer (2% p-methyl-aminophenol sulfate, 5% sodium sulfite). Samples were incubated for 10 min, and the absorbance was measured at 870 nm in a spectrophotometer. The Pi standard was 0.4387 g/100 mL KH2PO4.

[3] = molecular target: T1, PfATP6; assay: Yeast whole-cell growth inhibition (functional rescue) assay, K667[PfATP6]; assay type: cell-based; set-up: pUGpd containing the yeast-optimized coding region of PfATP6 from Plasmodium falciparum; expressed in transfected cells; host or cells: Saccharomyces cerevisiae K667 and K667Δpdr5::HIS
Method: (§1) The screening assay used here was developed from the protocol used by Pulcini et al. ([13]). A single colony of the yeast strain to be screened was picked and grown in 5 mL of selective medium until stationary phase was reached. The culture was diluted 100-fold in ampicillin-supplemented yeast extract-peptone-dextrose (YPD) medium to an OD at 620 nm (OD620) equivalent to that of lag phase. YPD medium was supplemented with an appropriate concentration of calcium, depending on the transformed strain. […] The optimal calcium concentration was periodically monitored and, if necessary, adjusted using a calcium concentration range of 10 to 30 mM. A final volume of 200 μL of the yeast culture was added to each well of a 96-well plate, with 5 technical replicates included per inhibitor. All inhibitors were dissolved in dimethyl sulfoxide (DMSO) unless otherwise stated. […] The 96-well plates were incubated at 30°C for 42 h. The yeast growth was estimated from the absorbance at 620 nm in a Tecan plate reader. Growth was normalized with the no-drug control to present data as percent growth. The data collected were analyzed using GraphPad Prism v9.0 (GraphPad software, San Diego, CA, U.S.A).

[4] = molecular target: T1, PfATP6; assay: cell-based; assay type: cell-based; set-up: pUGpd containing the yeast-optimized coding region of PfATP6 from Plasmodium falciparum; expressed in transfected cells; host or cells: Saccharomyces cerevisiae K667 and K667Δpdr5::HIS; settings: for Fold difference: IC50 K667[PfATP6] versus K667Δpdr5[PfATP6]; for inhibition of PfATP6 in compound screen: growth inhibition, K667Δpdr5[PfATP6]
Method: as §1

[5] = molecular target: T1, PfATP6; assay: DHA-biotin labeling / pulldown, Western blot and mass spectrometry; assay type: binding; set-up: pUGpd containing the yeast-optimized coding region of PfATP6 from Plasmodium falciparum; expressed in transfected cells; host or cells: Saccharomyces cerevisiae K667 and K667Δpdr5::HIS
Method: Both whole yeast and microsomes were prepared for mass spectrometric analysis by addition of 500 nM biotin-tagged DHA probe to 200 μL (∼0.6 mg protein) of yeast microsome preparation or 10 μM probe to 50 to 100 mL yeast culture at an OD620 of 1.0 to 1.5 (∼35 to 70 mg total protein) and incubation for 4 h at 30°C. For competition studies, 25× artesunate was added and incubated for 30 min before addition of the probe and incubation for 4 h at 30°C. Samples were then acetone precipitated by adding 4 volumes of −20°C acetone/water (4:1) to the yeast pellet or microsomal pellet and incubating the mixture for 2 h to overnight at −20°C. The samples were then pelleted at 13,000 to 16,000 × g for 10 min at 0°C to 4°C and washed twice with −20°C acetone/water solution. After a final centrifugation, pellets were dried in a freeze-drier for 1 h. Subsequent pulldowns and liquid chromatography-tandem mass spectrometry were performed as described by Wang et al. ([18]).
A 0.3-mg aliquot of PfATP6-enriched membrane vesicles, as well as an aliquot of SERCA1a and vector-only membrane vesicles, were thawed on ice. One-half of each aliquot (0.15 mg) was preincubated with 12.5 μM artesunate at 30°C for 30 min. Then, all samples had 500 nM DHA-biotin probe added (NewChem Technologies) and were incubated at 30°C for 4 h. […] Blots were analyzed using the Odyssey scanner system. […]

[6] = test system: cytosolic Ca2+ concentration in parasites; assay: Parasite calcium homeostasis (YC-Nano biosensor, flow cytometry); assay type: cell-based, Plasmodium falciparum; settings: 25 μM, YC-Nano-expressing parasites
Method: Three biological replicates were carried out, after an initial blinded experiment.

C[C@H]1[C@@H](O)O[C@@H]2O[C@@]3(C)CC[C@H]4[C@H](C)CC[C@@H]1[C@@]24OO3 [DHA, dihydroartemisinin]
IC50 [1]: 0.0025 µM | in vitro activity of PfATP6 versus no drug control [2]: No significant | IC50 [3]: 23.8 µM | IC50 [4]: 2.1 µM | Fold difference [4]: 11^c

C[C@H]1[C@H](OC(=O)CCC(=O)O)O[C@@H]2O[C@@]3(C)CC[C@H]4[C@H](C)CC[C@@H]1[C@@]24OO3 [Artesunate]
IC50 [3]: 14.8 µM | IC50 [4]: 3.7 µM | Fold difference [4]: 4^d | competition with tagged DHA for PfATP6 ([5]; preincubation with excess artesunate): competed with the tagged DHA

C[C@@H]1CC[C@H]2[C@@H](C)C(=O)O[C@@H]3O[C@@]4(C)CC[C@@H]1[C@]32O4 [deoxyartemisinin]
in vitro activity of PfATP6 versus no drug control [2]: No significant

Oc1ccc(O)cc1 [benzohydroquinone]
inhibition of PfATP6 in compound screen [4]: limited success

C[C@@H]1CC[C@H]2[C@@H](C)C(=O)O[C@@H]3O[C@@]4(C)CC[C@@H]1[C@]32OO4 [Artemisinin]
IC50 [3]: 10.6 µM | IC50 [4]: 1.8 µM

CO[C@H]1O[C@@H]2O[C@@]3(C)CC[C@H]4[C@H](C)CC[C@@H]([C@H]1C)[C@@]24OO3 [Artemether]
IC50 [3]: 15.7 µM | IC50 [4]: 3.4 µM | Fold difference [4]: 5^e | approximate IC10 ([4]; fitness cost assays, drug pressure): ~1 µM | IC80 ([4]; read-out: approximate yeast IC80): ~1 µM

C[C@H]1O[C@@H](O[C@H]2CC[C@@]3(C)[C@@H](CC[C@]4(C)[C@@H]3C=C[C@]35OC[C@@]6(CCC(C)(C)C[C@H]63)[C@H](O)C[C@]54C)[C@]2(C)CO)[C@H](O)[C@@H](O[C@@H]2O[C@H](CO)[C@@H](O)[C@H](O)[C@H]2O)[C@H]1O [saikosaponin, Saikosaponin D]
concentration at which PfATP6 was inhibited ([4]; inhibited only at high concentrations): > 100 µM

Cc1cc(O)c2c(=O)c3c(O)cc(O)c4c5c(O)cc(O)c6c(=O)c7c(O)cc(C)c8c1c2c(c34)c(c78)c65 [hypericin]
inhibition of PfATP6 in compound screen [4]: limited success

C[C@H]1[C@H](N2CCS(=O)(=O)CC2)O[C@@H]2O[C@@]3(C)CC[C@H]4[C@H](C)CC[C@@H]1[C@@]24OO3 [Artemisone]
change in cytosolic Ca2+ concentration [6]: significantly increased | change in cytosolic Ca2+ concentration ([6]; listed as artemisone): sustained elevation | IC50 [3]: 3.6 µM | IC50 [4]: 0.9 µM | Fold difference [4]: 4^c

CC1CCC2C(C)C(OC(=O)CCOCCOCCOCCOCCNC(=O)CCCCC3SCC4NC(=O)NC43)OC3OC4(C)CCC1C32OO4 (stereo not drawn) [biotin-derivatized DHA]
IC50 [1]: 0.005 µM | alkylation/labeling of PfATP6 ([5]; membrane extracts and whole yeast, K667[PfATP6], mass spectrometry): alkylated
